The numbers were not newly measured in patent US20240115517A1, “COMPOSITIONS AND METHODS FOR IMPROVING SKIN BARRIER” (LYCORED LTD., priority 0001, published 2024), which cites them from elsewhere.

SMILES strings stand for the structures.

For series [1] the following is noted: 4 mg/day, 9 weeks.

As to `CC1=C(/C=C/C(C)=C/C=C/C(C)=C/C=C/C=C(C)/C=C/C=C(C)/C=C/C2=C(C)C(=O)[C@@H](O)CC2(C)C)C(C)(C)C[C@H](O)C1=O` [astaxanthin, Astaxanthin], the “minimal erythema dose of UV” value in series [1] was “increase”. In addition, the “increase of TEWL at the site of irradiation versus control group” value in series [1] (after UV irradiation) is given as “significantly less”. The “TEWL compared to controls” value with 36 male subjects (6 mg per day, 6 weeks) is “significantly reduced”. Further, the “minor wrinkles, age spot size, elasticity, hydration” value in the series with 36 male subjects (astaxanthin supplementation) is “improvements”.
